Where two headings read alike, the source gives them in different places.
Tests used:
[1] = tested on: Staphylococcus aureus ATCC 21027; test: Antimicrobial assay, growth inhibition (optical density); format: cell-based; conditions: Staphylococcus aureus
Description: (§1) The Gram-positive bacterial Staphylococcus aureus ATCC 21027, Gram-negative bacterial Escherichia coli VKPM (B-7935), and yeast-like fungal Candida albicans KMM 455 strains were fermented on solid medium Mueller Hinton broth with agar (16.0 g/L) in a Petri dish at 37 °C for 24 h. The antimicrobial activity of the compound was tested at concentrations ranging from 100 µM and lower. The effect of the compound on bacterial growth was estimated as described by. Gentamicin and amphotericin B were used as positive controls against S. aureus, E. coli, and C. albicans, and a 1% dimethyl sulfoxide (DMSO) solution in PBS was used as a negative control. The optical density of the bacterial suspension after 18 h was measured at λ = 620 nm. The effect of the compound on biofilm formation for 18 h was tested using MTT reagent (Sigma-Aldrich, St. Louis, MO, USA) in accordance with. The optical density of the obtained solution was measured at λ = 570 nm. A Multiskan FS spectrophotometer (Thermo Scientific Inc., Beverly, MA, USA) was used for both assays. The results were calculated as percentages of the control data and presented as minimal concentrations reduced by 50% of growth or biofilm formation (MIC50).

[2] = tested on: Escherichia coli VKPM (B-7935); test: as above; format: cell-based
Description: as §1

Candida albicans KMM 455 [3] = test: as above; format: cell-based
Description: as §1

[4] = Cell viability assay (MTT); format: cell-based, rat; conditions: rat, H9c2 cardiomyocytes, read-out: Cytotoxicity IC50
Excerpt: (§2) Rat cardiomyocyte H9c2 cells were kindly provided by Prof. Dr. Gunhild von Amsberg from the Martini-Klinik Prostate Cancer Center, University Hospital Hamburg-Eppendorf, Hamburg, Germany. The human HaCaT keratinocyte cell line was kindly provided by Prof. N. Fusenig (Cancer Research Centre, Heidelberg, Germany). Non-cancerous human breast epithelial MCF-10A cells were kindly provided by Dr. Irina Zhitnyak (N. N. Blokhin National Medical Research Center of Oncology, Moscow, Russia). Human breast cancer MCF-7 HTB-22 and MDA-MB-231 cells were obtained from the ATTC (Manassas, VA, USA).
(§3) H9c2 and HaCaT cells were cultured in DMEM with 10% fetal bovine serum and 1% penicillin/streptomycin (BioloT, St. Petersburg, Russia). MCF-7 and MDA-MB-231 cells were cultured in MEM (BioloT, St. Petersburg, Russia) with 10% fetal bovine serum (FBS) and 1% penicillin/streptomycin (BioloT, St. Petersburg, Russia). MCF 10A cells were cultured in DMEM F12 medium (BioloT, St. Petersburg, Russia) supplemented with 20% FBS, 20 ng/mL hrEGF (Sci-Store, Moscow, Russia), and 1% penicillin/streptomycin (BioloT, St. Petersburg, Russia). All cells were cultured at 37 °C in a humidified atmosphere containing 5% CO2.
(§4) H9c2 cells were seeded at a concentration of 3 × 10^3 cells/well. MCF-10A, MCF-7, and MDA-MB-231 cells were seeded at 5 × 10^3 cells/well, and HaCaT cells were seeded at 1 × 10^4 cells/well. The experiments were initiated after 24 h.
(§5) Compounds at concentrations up to 100 µM were added to the wells for 24h or 48 h, and the viability of the cells was measured using an MTT (3-(4,5-dimethylthiazol-2-yl)-2,5-diphenyltetrazolium bromide) assay, which was performed according to the manufacturer’s instructions (Sigma-Aldrich, Munich, Germany). […] DMSO was used as a control. The results are presented as percentages of the control data.

H9c2 cardiomyocytes = test: Cell viability assay (MTT); format: cell-based, rat
Excerpt: as §2, §3, §4, §5

[5] = tested on: Staphylococcus aureus ATCC 21027; test: Biofilm formation assay (MTT); format: cell-based
Description: as §1

[6] = tested on: Escherichia coli VKPM (B-7935); test: Biofilm formation assay (MTT); format: cell-based
Description: as §1

Candida albicans KMM 455 [7] = test: Biofilm formation assay (MTT); format: cell-based
Description: as §1

[8] = tested on: MCF-10A breast epithelial cells; test: Cell viability assay (MTT); format: cell-based, human; conditions: MCF10A
Excerpt: as §2, §3, §4, §5

HaCaT keratinocytes = test: Cell viability assay (MTT); format: cell-based, human
Excerpt: as §2, §3, §4, §5

[9] = Cell viability assay (MTT); format: cell-based, human; conditions: human, read-out: Cytotoxicity IC50
Excerpt: as §2, §3, §4, §5

[10] = tested on: MDA-MB-231 breast cancer cells; test: Cell viability assay (MTT); format: cell-based, human
Excerpt: as §2, §3, §4, §5

[11] = tested on: MCF-7 breast cancer cells; test: Cell viability assay (MTT); format: cell-based, human
Excerpt: as §2, §3, §4, §5

Which results are given for `COc1c(OC)c(-c2c[nH]c3ccccc23)c(OC)c(OC)c1-c1c[nH]c2ccccc12` [Compound 7, asterriquinol D dimethyl ether]?
MIC50 ([1]; ATCC21027, 18 h, S. aureus, 18 h): > 100 µM; inhibition at 100 µM ([1]; ATCC21027, at 100 µM, read-out: inhibition of S. aureus growth): 42.2 ± 2.07%; MIC50 ([2]; Escherichia coli, 18 h, E. coli): > 100 µM; effect on E. coli growth ([2]; at / up to 100 µM): did not affect; MIC50 (Candida albicans KMM 455 [3]; Candida albicans, KMM455, 18 h, C. albicans, 18 h): > 100 µM; effect on C. albicans growth (Candida albicans KMM 455 [3]; at / up to 100 µM): did not affect; IC50 at 24 h ([4]; H9c2, 24 h): > 100 µM; IC50 at 48 h ([4]; H9c2, 48 h): 69.9 ± 2.3 µM; cell viability (H9c2 cardiomyocytes; H9c2, 24 h, 1.0 µM): 101.5 ± 1.3 % of control; cell viability (H9c2 cardiomyocytes; H9c2, 24 h, 10.0 µM): 76.9 ± 2.8 % of control; cell viability (H9c2 cardiomyocytes; H9c2, 24 h, 100.0 µM): 59.0 ± 5.3 % of control; cell viability (H9c2 cardiomyocytes; H9c2, 48 h, 1.0 µM): 102.8 ± 7.6 % of control; cell viability (H9c2 cardiomyocytes; H9c2, 48 h, 10.0 µM): 76.3 ± 3.9 % of control; cell viability (H9c2 cardiomyocytes; H9c2, 48 h, 100.0 µM): 32.8 ± 1.4 % of control; Biofilm formation, MIC50 ([5]; S. aureus, 18 h): >100 µM; effect on S. aureus biofilm formation ([5]; at / up to 100 µM): did not affect; Biofilm formation, MIC50 ([6]; E. coli, 18 h): >100 µM; effect on E. coli biofilm formation ([6]; at / up to 100 µM): did not affect; Biofilm formation, MIC50 (Candida albicans KMM 455 [7]; C. albicans, 18 h): >100 µM; effect on C. albicans biofilm formation (Candida albicans KMM 455 [7]; at 100 µM): did not affect; cell viability ([8]; 24 h, 1.0 µM): 102.7 ± 5.1 % of control; cell viability ([8]; 24 h, 10.0 µM): 100.2 ± 3.8 % of control; cell viability ([8]; 24 h, 100.0 µM): 59.6 ±2.1 % of control; cell viability ([8]; 48 h, 1.0 µM): 97.7 ± 1.4 % of control; cell viability ([8]; 48 h, 10.0 µM): 93.1 ± 3.6 % of control; cell viability ([8]; 48 h, 100.0 µM): 78.9 ± 5.7 % of control; cell viability (HaCaT keratinocytes; 24 h, 1.0 µM): 100.7 ± 3.8 % of control; cell viability (HaCaT keratinocytes; 24 h, 10.0 µM): 85.6 ± 7.6 % of control; cell viability (HaCaT keratinocytes; 24 h, 100.0 µM): 64.1 ± 3.2 % of control; cell viability (HaCaT keratinocytes; 48 h, 1.0 µM): 94.2 ± 8.7 % of control; cell viability (HaCaT keratinocytes; 48 h, 10.0 µM): 78.1 ± 6.4 % of control; cell viability (HaCaT keratinocytes; 48 h, 100.0 µM): 40.1 ± 2.9 % of control; IC50 at 24 h ([9]; HaCaT keratinocytes, 24 h): > 100 µM; IC50 at 48 h ([9]; HaCaT keratinocytes, 48 h): 80.5 ± 1.8 µM; IC50 at 24 h ([9]; MCF-7 breast cancer cells, MCF-7, 24 h): > 100 µM; IC50 at 48 h ([9]; MCF-7 breast cancer cells, MCF-7, 48 h): 79.1 ± 2.4 µM; IC50 at 24 h ([9]; MCF-10A breast epithelial cells, MCF10A, 24 h): > 100 µM; IC50 at 48 h ([9]; MCF-10A breast epithelial cells, MCF10A, 48 h): > 100 µM; IC50 at 24 h ([9]; MDA-MB-231 breast cancer cells, MDA-MB-231, 24 h): > 100 µM; IC50 at 48 h ([9]; MDA-MB-231 breast cancer cells, MDA-MB-231, 48 h): 85.1 ± 1.5 µM; cell viability ([10]; MDA-MB-231, 24 h, 1.0 µM): 102.7 ± 1.6 % of control; cell viability ([10]; MDA-MB-231, 24 h, 10.0 µM): 75.9 ± 4.8 % of control; cell viability ([10]; MDA-MB-231, 24 h, 100.0 µM): 53.6 ± 4.2 % of control; cell viability ([10]; MDA-MB-231, 48 h, 1.0 µM): 99.8 ± 3.7 % of control; cell viability ([10]; MDA-MB-231, 48 h, 10.0 µM): 82.9 ± 6.3 % of control; cell viability ([10]; MDA-MB-231, 48 h, 100.0 µM): 43.5 ± 2.5 % of control; cell viability ([11]; MCF-7, 24 h, 1.0 µM): 99.4 ± 4.4 % of control; cell viability ([11]; MCF-7, 24 h, 10.0 µM): 65.4 ± 2.9 % of control; cell viability ([11]; MCF-7, 24 h, 100.0 µM): 56.0 ± 4.5 % of control; cell viability ([11]; MCF-7, 48 h, 1.0 µM): 91.5 ± 6.3 % of control; cell viability ([11]; MCF-7, 48 h, 10.0 µM): 70.0 ± 5.2 % of control; cell viability ([11]; MCF-7, 48 h, 100.0 µM): 43.9 ± 3.5 % of control

Source: publication PMC12471299, “Secondary Metabolites of the Marine Sponge-Derived Fungus Aspergillus subramanianii 1901NT-1.40.2 and Their Antimicrobial and Anticancer Activities” (Marine Drugs, 2025)
